Reference: US9168286B2, “Methods and compositions for use in treatment of patients with autoantibody positive disease” (Human Genome Sciences, Inc., priority 2005, dated 2015)

Key:
[1] = Phase 2 clinical trial of belimumab in rheumatoid arthritis: serum concentrations; conditions: human, in vivo
Text: (§1) ACR20 response increased to approximately 40% at Week 48.

[2] = system: subjects with SLE; conditions: human, in vivo
Procedure: (§2) 449 subjects with SLE by ACR criteria (Tan et al., Arthritis Rheum. 25:1271-7, (1982); and Hochberg et al., Arthritis Rheum. 40:1725, (1997)), with a history of measurable autoantibodies and SELENA SLEDAI score ≧4 at screening were dosed.
(§3) Subjects who completed the 52-week treatment period were given the option to continue the study for a 24-week extension period. […] B-cells were analyzed every 1-2 months by 4-color FACS (CD19, CD20, CD27, CD69, CD38, CD138 and CD45). Serum autoantibody, including anti-dsDNA Ab, Ig isotypes, total protein, and albumin levels were obtained at the same visits. The likelihood ratio chi-squared, Wilcoxon test or t-test was used to analyze the changes in the biological markers.

[3] = system: subjects with RA; assay: Phase 2 clinical trial of belimumab in rheumatoid arthritis: safety; format: in vivo, human
Text: as §1

[4] = system: subjects with RA; assay: Phase 2 clinical trial of belimumab in rheumatoid arthritis: biomarkers; format: in vivo, human
Text: as §1

[5] = system: subjects with SLE; assay: Phase 2 clinical trial of belimumab in SLE: safety
Procedure: as §2, §3

[6] = system: subjects with RA; assay: Phase 2 clinical trial of belimumab in rheumatoid arthritis: ACR20 response; format: in vivo, human
Text: as §1

[7] = system: subjects with SLE; assay: Phase 2 clinical trial of belimumab in SLE with extension and continuation trial: biologic markers (B cells, autoantibodies, Ig isotypes, C3/C4); format: in vivo, human; parameters: median percent change in CD20+ B cells (reduction) / median percent change in plasmacytoid B cells (CD20+/CD138+) (reduction) / median percent change in activated B cells (CD20+/CD69+) (reduction) / percent of subjects with significant anti-dsDNA reduction / IgE reduction: concentration or dose not given beside the values; conditions: for IgE reduction: subjects with elevated IgE (>114 KU/L) at baseline
Procedure: Of the patients who completed 52 weeks of treatment in the randomized, double-blind, placebo-controlled Phase 2 trial (see example 1), 96% (351/364) elected to enter the 24-week extension phase of the trial, and 92% (321/351) of those who entered completed it.
Serum autoantibodies, Ig isotypes and complement (C3, C4) were measured at 1-3 month intervals. In addition, the population with baseline serologic activity (ANA ≧1:80 or anti-dsDNA Ab ≧30IU; 72% of the original cohort herein called seropositive patients or seropositive subjects) was evaluated for SS, physician global assessment (PGA 0-3 units), BILAG, […] Functional Index (SFI) and autoantibody status at 1-3 month intervals.

[8] = continued treatment in the extension period
[9] = each measurement during weeks 8-52, p<0.01
[10] = week 52, all treatment groups combined, p<0.002
[11] = week 76, all treatment groups combined

belimumab: an antibody that neutralizes Neutrokine-alpha protein
Serum concentrations [1]: within the range expected based on the Phase 1 data
effect of concomitant medications (methotrexate, leflunomide or hydroxychloroquine) on belimumab exposures [1]: no significant effect
safety, including adverse events (AE), AE severity, infections or lab toxicity [2]: No clinically significant differences
tolerability ([3]; 1, 4, 10 mg/kg, 24 weeks): well tolerated at all doses
tolerability [3, 8]: well tolerated
Effects on biomarkers [4, 8]: increased or were sustained
CD20+ B-cells ([4]; human, in vivo): statistically significant reductions
RF (rheumatoid factor) ([4]; human, in vivo): statistically significant reductions
activated B-cells ([4]; human, in vivo): statistically significant reductions
memory cells ([4]; human, in vivo): increased within first month of treatment and slowly declined with continued treatment
naïve B-cells ([4]; human, in vivo): statistically significant reductions
Immunogenicity to belimumab, number of subjects ([5]; 1 mg/kg): 1 subject
Infusion reactions ([5]; human, in vivo): rare, with only 1 severe event reported
tolerability ([5]; human, in vivo): well tolerated
subjects with pleurisy ([5]; placebo 8%, p<0.05): 3.3%
ACR20 response ([6]; 1 mg/kg treatment group vs placebo, 24 weeks, p=0.0097): statistically superior
dose-response relationship for efficacy, safety, biomarker effects ([6]; 1, 4, 10 mg/kg): not apparent
ACR20 response ([6]; Week 48 (extension period)): approximately 40%
ACR20 response ([6]; all active treatment groups combined vs placebo, 24 weeks, p=0.0213): statistically superior
symptoms associated with rheumatoid arthritis, by subgroup ([6]; patients with DAS28 >5.1, no previous anti-TNF therapy, and/or rheumatoid factor, IV days 0, 14, 28 then every four weeks until week 24): more likely to ameliorate symptoms associated with rheumatoid arthritis
ACR20 responses in subgroups ([6]; subjects with autoantibody positive disease (RF or anti-CCP) or positive for CRP at baseline): improved ACR20 responses
subjects with elevated Ig isotype levels at baseline returned to normal Ig isotype levels ([7]; 52/128, p=0.0014, control 16% (7/45)): 41%
decrease of anti-dsDNA levels ([7]; anti-dsDNA+ at baseline, weeks 52-128, placebo week 52=9%): 29-44%
serum IgG, IgA, IgE and IgM levels, median percent change from baseline ([7]; as early as week 8, p<0.0001 vs placebo): Significant belimumab-induced reductions
time at which maximal median reductions of each Ig isotype were reached ([7]; belimumab-treated subjects): 8-24 weeks
percent of subjects with significant anti-dsDNA reduction ([7]; clinical responders, week 52): 35%
percent of subjects with significant anti-dsDNA reduction ([7]; clinical responders, week 128): 56%
CD19+ B cell counts, median percent change from baseline [7, 9]: Significant reductions
activated B cell (CD20+/CD69+) counts, median percent change from baseline [7, 9]: Significant reductions
naïve B cell (CD20+/CD27−) counts, median percent change from baseline [7, 9]: Significant reductions
plasmacytoid B cell (CD20+/CD138+) counts, median percent change from baseline ([7]; each measurement during weeks 16-52, p<0.01): Significant reductions
increase of C3 ([7]; low baseline C3 (n=135), week 52, placebo −1%): 6%
increase of C3 ([7]; low baseline C3, week 76): 10%
increase of C3 ([7]; low baseline C3, week 96): 15%
increase of C3 ([7]; low baseline C3, week 128): 18%
increase of C4 ([7]; low baseline C4 (n=180), week 52, p=0.0126, placebo 14%): 33%
increase of C4 ([7]; low baseline C4, week 76): 46%
increase of C4 ([7]; low baseline C4, week 96): 57%
increase of C4 ([7]; low baseline C4, week 128): 67%
Anti-Sm reverted from positive at baseline to negative ([7]; n=85, weeks 52-128, placebo week 52=5%): 26-36%
subjects with hypergammaglobulinemia (>1618 mg/dL) at baseline normalized ([7]; n=125, week 52, placebo week 52=17%): 45%
subjects with hypergammaglobulinemia (>1618 mg/dL) at baseline normalized ([7]; n=125, week 128): 57%
RNP reverted from positive at baseline to negative ([7]; n=205, weeks 52-128, placebo week 52=2%): 9-27%
percent of subjects with significant anti-dsDNA reduction ([7]; non-responders, week 52): 19%
percent of subjects with significant anti-dsDNA reduction ([7]; non-responders, week 128): 32%
C4 complement levels, median percent change from baseline ([7]; patients with low C4 at baseline, each measurement during weeks 4-52, p≦0.01): significant increase
anti-dsDNA titer, median percent change from baseline ([7]; subjects with anti-dsDNA ≧30 IU/ml at entry, as early as week 4, through week 52, vs placebo): significant reduction
IgE reduction ([7]; week 52): 44%
IgE reduction ([7]; week 128): 57%
median percent IgG reduction ([7]; subjects with elevated IgG at baseline, weeks 52-128): 14-18%
median percent IgG reduction ([7]; subjects with normal IgG at baseline, weeks 52-128): 7-8%
cell counts of CD19+, naïve, activated and plasmacytoid B cells, median percent change from baseline ([7]; week 24, all treated combined vs placebo, p<0.0001): significant reduction
CD19+ B cells and naïve B cells (CD20+/CD27−) ([7]; week 52): significantly reduced
memory cell populations ([7]; week 52): preserved
median percent change in CD20+ B cells (reduction) [7, 10]: 54%
median percent change in plasmacytoid B cells (CD20+/CD138+) (reduction) [7, 10]: 62%
reduction of anti-dsDNA Ab ([7]; week 52, baseline positive, p<0.002, placebo 9%): 30%
median percent change in activated B cells (CD20+/CD69+) (reduction) ([7]; week 52, p<0.002): 70%
median reduction of serum IgE ([7]; week 52, placebo 0%): 34%
median reduction of serum IgA ([7]; week 52, placebo 3%): 14%
median reduction of serum IgM ([7]; week 52, placebo 5%): 29%
subjects with significant anti-dsDNA reduction (≧50% reduction or become negative) ([7]; week 52, placebo 17%): 30%
median reduction of serum IgG ([7]; week 52, placebo up 3%): 10%
increase of plasma cells (CD20−/CD138+) over baseline ([7]; week 52, placebo/standard of care 30.6%, p=0.02): 72.5%
additional anti-dsDNA+ subjects converted to negative ([7]; week 76): 3 subjects
median reduction of serum IgA ([7]; week 76): 15%
median reduction of serum IgE ([7]; week 76): 35%
median reduction of serum IgG ([7]; week 76): 12%
median reduction of serum IgM ([7]; week 76): 34%
reduction of anti-dsDNA Ab ([7]; week 76): 28%
median percent change in CD20+ B cells (reduction) [7, 11]: 61%
median percent change in activated B cells (CD20+/CD69+) (reduction) [7, 11]: 84%
median percent change in plasmacytoid B cells (CD20+/CD138+) (reduction) [7, 11]: 60%
median reduction of serum IgA ([7]; week 104): 14%
median reduction of serum IgE ([7]; week 104): 37%
median reduction of serum IgG ([7]; week 104): 10%
median reduction of serum IgM ([7]; week 104): 35%
median reduction of serum IgA ([7]; week 128): 14%
median reduction of serum IgE ([7]; week 128): 41%
median reduction of serum IgG ([7]; week 128): 9%
median reduction of serum IgM ([7]; week 128): 40%
subjects with significant anti-dsDNA reduction (≧50% reduction or become negative) ([7]; week 128): 47%
